Measurements: patent publication US20100311714A1, “1H-IMIDAZO[4,5-c]QUINOLINONE COMPOUNDS” (priority 2009, published 2010)
Like-named read-outs stand apart in the source and are kept apart here.

Experiments:
[1] = Parallel Artificial Membrane Permeability Assay (PAMPA) at pH 6.8; format: physicochemical
In short: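 PAMPA permeability measured at pH 6.8 following the Wohnsland and Faller method; value reported as log Pe.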

mTOR = target: T1, mTOR (Homo sapiens, UniProt P42345); assay: Biochemical assay for m-TOR by TR-FRET
T1 construct: purchased Invitrogen Corporation (Carlsbad/Calif., USA) PV4753
T1 sequence (P42345 1360-2549 limits assumed): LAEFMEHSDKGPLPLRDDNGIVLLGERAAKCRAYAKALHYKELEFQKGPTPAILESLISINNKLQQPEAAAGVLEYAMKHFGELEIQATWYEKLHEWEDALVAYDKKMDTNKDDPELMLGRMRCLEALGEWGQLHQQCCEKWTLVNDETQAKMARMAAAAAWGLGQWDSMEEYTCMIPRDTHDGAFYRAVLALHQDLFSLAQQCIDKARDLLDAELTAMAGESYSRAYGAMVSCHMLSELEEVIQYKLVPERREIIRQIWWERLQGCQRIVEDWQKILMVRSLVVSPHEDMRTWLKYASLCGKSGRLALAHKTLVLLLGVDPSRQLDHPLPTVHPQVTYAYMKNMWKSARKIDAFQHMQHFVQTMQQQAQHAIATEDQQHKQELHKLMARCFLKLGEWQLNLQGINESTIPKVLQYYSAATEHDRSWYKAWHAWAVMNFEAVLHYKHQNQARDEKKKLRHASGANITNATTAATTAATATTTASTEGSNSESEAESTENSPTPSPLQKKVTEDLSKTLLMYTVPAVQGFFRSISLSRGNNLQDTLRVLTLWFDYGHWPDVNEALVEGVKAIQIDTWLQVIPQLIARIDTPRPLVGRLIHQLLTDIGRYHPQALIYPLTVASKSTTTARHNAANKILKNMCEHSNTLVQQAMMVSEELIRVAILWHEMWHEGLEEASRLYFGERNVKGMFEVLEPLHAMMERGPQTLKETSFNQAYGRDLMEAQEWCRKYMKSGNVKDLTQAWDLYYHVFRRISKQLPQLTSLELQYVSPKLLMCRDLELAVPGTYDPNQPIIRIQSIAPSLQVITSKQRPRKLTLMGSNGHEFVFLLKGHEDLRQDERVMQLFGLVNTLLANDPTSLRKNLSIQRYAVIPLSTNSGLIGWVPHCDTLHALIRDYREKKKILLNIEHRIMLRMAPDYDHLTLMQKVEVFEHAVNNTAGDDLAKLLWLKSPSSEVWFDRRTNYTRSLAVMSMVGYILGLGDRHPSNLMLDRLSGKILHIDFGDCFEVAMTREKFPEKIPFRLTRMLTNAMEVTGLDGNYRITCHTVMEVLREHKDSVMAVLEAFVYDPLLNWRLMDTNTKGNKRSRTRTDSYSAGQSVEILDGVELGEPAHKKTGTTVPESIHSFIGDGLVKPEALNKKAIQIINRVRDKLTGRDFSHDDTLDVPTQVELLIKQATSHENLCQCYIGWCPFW
In short: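 mTOR (0.5 nM) phosphorylates GFP-4EBP1 (400 nM) with 8 μM ATP at rt in 50 mM HEPES pH 7.5, 10 mM MnCl2, 50 mM NaCl, 1 mM EGTA, 1 mM DTT; compounds 0.003–10 μM final. EDTA stop with Tb-anti-p4EBP1[pT46] antibody (0.5 nM); TR-FRET read after 15 min against no-enzyme and vehicle controls.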

PI3K beta = target: T2, PI3K beta (Homo sapiens, UniProt P42338); assay: PI3K beta kinase assay (Kinase-Glo luminescence); format: biochemical
T2 construct: for the full-length p110-b subunit are generated and fused by overlapping PCR; His tag (C); made in house; host or cells: baculovirus BV949; Tn5 (Trichoplusia ni) or TiniPro insect cells
T2 sequence (P42338 with tags, fused parts or gaps limits assumed): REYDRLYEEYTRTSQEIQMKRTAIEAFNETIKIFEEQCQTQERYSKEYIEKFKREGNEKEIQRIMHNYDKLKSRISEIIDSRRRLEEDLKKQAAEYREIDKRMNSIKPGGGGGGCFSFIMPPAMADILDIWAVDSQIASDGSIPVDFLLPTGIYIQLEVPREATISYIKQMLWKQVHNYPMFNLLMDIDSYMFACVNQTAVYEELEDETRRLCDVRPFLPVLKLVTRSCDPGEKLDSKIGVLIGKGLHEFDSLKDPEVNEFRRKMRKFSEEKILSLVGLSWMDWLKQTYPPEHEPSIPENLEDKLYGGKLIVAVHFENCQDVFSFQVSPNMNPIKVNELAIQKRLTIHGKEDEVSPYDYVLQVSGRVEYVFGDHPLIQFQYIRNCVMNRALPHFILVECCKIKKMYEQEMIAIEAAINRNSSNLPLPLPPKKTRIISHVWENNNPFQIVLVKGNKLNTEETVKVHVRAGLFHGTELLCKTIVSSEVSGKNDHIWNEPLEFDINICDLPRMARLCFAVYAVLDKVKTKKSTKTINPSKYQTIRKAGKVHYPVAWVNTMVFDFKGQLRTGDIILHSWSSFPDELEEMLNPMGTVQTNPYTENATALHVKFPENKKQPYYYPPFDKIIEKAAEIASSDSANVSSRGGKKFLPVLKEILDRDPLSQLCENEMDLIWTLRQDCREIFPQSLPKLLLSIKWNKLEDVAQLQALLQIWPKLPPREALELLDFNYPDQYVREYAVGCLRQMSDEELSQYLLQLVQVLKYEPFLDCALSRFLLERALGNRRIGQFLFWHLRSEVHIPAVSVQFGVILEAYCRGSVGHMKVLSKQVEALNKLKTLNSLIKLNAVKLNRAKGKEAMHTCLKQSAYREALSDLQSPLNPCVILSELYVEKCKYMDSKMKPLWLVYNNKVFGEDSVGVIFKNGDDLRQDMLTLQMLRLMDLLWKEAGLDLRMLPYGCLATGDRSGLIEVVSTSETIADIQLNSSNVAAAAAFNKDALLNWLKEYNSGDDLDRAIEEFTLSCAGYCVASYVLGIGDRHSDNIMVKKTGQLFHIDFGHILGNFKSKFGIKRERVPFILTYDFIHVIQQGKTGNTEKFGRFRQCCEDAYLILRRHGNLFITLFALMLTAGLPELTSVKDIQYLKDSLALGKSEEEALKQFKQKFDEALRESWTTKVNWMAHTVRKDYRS
In short: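 PI3Kβ construct BV949 (p85 iSH2–p110β full-length, C-His), 25 nM, reacted with 1 μM ATP and 10 μg/mL phosphatidylinositol in Tris pH 7.5, MgCl2, NaCl, CHAPS, DTT buffer, 60 min at room temperature. Remaining ATP by Kinase-Glo luminescence; IC50 from 4-parameter logistic fit of 8 concentrations.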

Structure (SMILES) | HT-Perm logPe pH6.8 [1] | IC50 (mTOR; read-out: EPK_mTOR/IC50) | IC50 (PI3K beta; read-out: EPK_PI3Kbeta/IC50) | HT-perm/logPe pH6.8 [1] | IC50 (mTOR; read-out: mTOR/IC50) | IC50 (PI3K beta; read-out: PI3Kbeta/IC50)
CCOCc1cc(-c2ccc3ncc4c(c3c2)n(-c2ccc(F)nc2C)c(=O)n4C)cnc1N [Example 7.15, 8-(6-Amino-5-ethoxymethyl-pyridin-3-yl)-1-(6-fluoro-2-methyl-pyridin-3-yl)-3-methyl-1,3-dihydro-imidazo[4,5-c]quinolin-2-one] | −4 | 426 nM | 194 nM | – | – | –
COCCOc1ccc(-n2c(=O)n(C)c3cnc4ccc(-c5cnc(N)c(C(F)(F)F)c5)cc4c32)c(C)n1 [Example 13.2, 8-(6-Amino-5-trifluoromethyl-pyridin-3-yl)-1-[6-(2-methoxy-ethoxy)-2-methyl-pyridin-3-yl]-3-methyl-1,3-dihydro-imidazo[4,5-c]quinolin-2-one] | −3.7 | 18 nM | 20 nM | – | – | –
CCNc1cc(-c2ccc3ncc4c(c3c2)n(-c2ccc(C)nc2C)c(=O)n4C)cnc1C [Example 14.6, 1-(2,6-Dimethyl-pyridin-3-yl)-8-(5-ethylamino-6-methyl-pyridin-3-yl)-3-methyl-1,3-dihydro-imidazo[4,5-c]quinolin-2-one] | −4.1 | 6 nM | 50 nM | – | – | –
CNc1cc(-c2ccc3ncc4c(c3c2)n(-c2ccc(C(F)(F)F)nc2C)c(=O)n4C)cnc1CO [Example 33.2, 8-(6-Hydroxymethyl-5-methylamino-pyridin-3-yl)-3-methyl-1-(2-methyl-6-trifluoromethyl-pyridin-3-yl)-1,3-dihydro-imidazo[4,5-c]quinolin-2-one] | −4.8 | 3 nM | 38 nM | – | – | –
CNc1cc(-c2ccc3ncc4c(c3c2)n(-c2ccc(F)nc2C)c(=O)n4C)cnc1CO [Example 7.11, 1-(6-Fluoro-2-methyl-pyridin-3-yl)-8-(6-hydroxymethyl-5-methylamino-pyridin-3-yl)-3-methyl-1,3-dihydro-imidazo[4,5-c]quinolin-2-one] | −5.4 | 11 nM | 41 nM | – | – | –
CCNc1cc(-c2ccc3ncc4c(c3c2)n(-c2ccc(F)nc2C)c(=O)n4C)cnc1CO [Example 7.9, 8-(5-Ethylamino-6-hydroxymethyl-pyridin-3-yl)-1-(6-fluoro-2-methyl-pyridin-3-yl)-3-methyl-1,3-dihydro-imidazo[4,5-c]quinolin-2-one] | −5.2 | < 3 nM | 69 nM | – | – | –
COc1nc(N2CCNCC2)ccc1-n1c(=O)n(C)c2cnc3ccc(-c4cnc(N(C)C)nc4)cc3c21 [Example 9.4, 8-(2-Dimethylamino-pyrimidin-5-yl)-1-(2-methoxy-6-piperazin-1-yl-pyridin-3-yl)-3-methyl-1,3-dihydro-imidazo[4,5-c]quinolin-2-one] | −6.1 | 9 nM | 142 nM | – | – | –
CCNc1cc(-c2ccc3ncc4c(c3c2)n(-c2cnc(F)cc2C)c(=O)n4C)cnc1C [Example 16.2, 8-(5-Ethylamino-6-methyl-pyridin-3-yl)-1-(6-fluoro-4-methyl-pyridin-3-yl)-3-methyl-1,3-dihydro-imidazo[4,5-c]quinolin-2-one] | −3.8 | 53 nM | 150 nM | – | – | –
Cc1nc(N2CC(F)(F)C2)ccc1-n1c(=O)n(C)c2cnc3ccc(-c4cncc(C(C)(C)O)c4)cc3c21 [Example 24.2, 1-[6-(3,3-Difluoro-azetidin-1-yl)-2-methyl-pyridin-3-yl]-8-[5-(1-hydroxy-1-methyl-ethyl)-pyridin-3-yl]-3-methyl-1,3-dihydro-imidazo[4,5-c]quinolin-2-one] | −5 | 48 nM | 19 nM | – | – | –
COc1ccc(-c2ccc3ncc4c(c3c2)n(-c2cccnc2OC)c(=O)n4C)cn1 [Example 1.1, 1-(2-Methoxy-pyridin-3-yl)-8-(6-methoxy-pyridin-3-yl)-3-methyl-1,3-dihydro-imidazo[4,5-c]quinolin-2-one] | – | – | – | −3.6 | 36 nM | 202 nM
COc1ccc(-c2ccc3ncc4c(c3c2)n(-c2cccnc2)c(=O)n4C)cc1OC [Example 5.2, 8-(3,4-Dimethoxy-phenyl)-3-methyl-1-pyridin-3-yl-1,3-dihydro-imidazo[4,5-c]quinolin-2-one] | – | – | – | −3.9 | 232 nM | 295 nM
CNc1ncc(-c2ccc3ncc4c(c3c2)n(-c2ccc(N(C)CCOC)nc2C)c(=O)n4C)cn1 [Example 15.2, 1-{6-[(2-Methoxy-ethyl)-methyl-amino]-2-methyl-pyridin-3-yl}-3-methyl-8-(2-methylamino-pyrimidin-5-yl)-1,3-dihydro-imidazo[4,5-c]quinolin-2-one] | −3.9 | 7 nM | 541 nM | – | – | –
Cc1nc(F)ccc1-n1c(=O)n(C)c2cnc3ccc(-c4cncc(N)c4)cc3c21 [Example 7.16, 8-(5-Amino-pyridin-3-yl)-1-(6-fluoro-2-methyl-pyridin-3-yl)-3-methyl-1,3-dihydro-imidazo[4,5-c]quinolin-2-one] | −6 | 110 nM | 236 nM | – | – | –
CNc1ccc(-c2ccc3ncc4c(c3c2)n(-c2ccc(OCCOC)nc2C)c(=O)n4C)cn1 [Example 13.3, 1-[6-(2-Methoxy-ethoxy)-2-methyl-pyridin-3-yl]-3-methyl-8-(6-methylamino-pyridin-3-yl)-1,3-dihydro-imidazo[4,5-c]quinolin-2-one] | −4 | 14 nM | 502 nM | – | – | –
Cc1ccc(-n2c(=O)n(C)c3cnc4ccc(-c5cnc(N)c(C(F)(F)F)c5)cc4c32)c(C)n1 [Example 14.5, 8-(6-Amino-5-trifluoromethyl-pyridin-3-yl)-1-(2,6-dimethyl-pyridin-3-yl)-3-methyl-1,3-dihydro-imidazo[4,5-c]quinolin-2-one] | −3.8 | 17 nM | 9 nM | – | – | –
Cc1nc(N2CCC(O)C2)ccc1-n1c(=O)n(C)c2cnc3ccc(-c4cncc(OC(C)C)c4)cc3c21 (stereo not drawn) [Example 27.1, 1-[6-(3-Hydroxy-pyrrolidin-1-yl)-2-methyl-pyridin-3-yl]-8-(5-isopropoxy-pyridin-3-yl)-3-methyl-1,3-dihydro-imidazo[4,5-c]quinolin-2-one] | −4.9 | 25 nM | 13 nM | – | – | –
CCNc1cc(-c2ccc3ncc4c(c3c2)n(-c2ccc(N(C)CCOC)nc2C)c(=O)n4C)cnc1C [Example 15.6, 8-(5-Ethylamino-6-methyl-pyridin-3-yl)-1-{6-[(2-methoxy-ethyl)-methyl-amino]-2-methyl-pyridin-3-yl}-3-methyl-1,3-dihydro-imidazo[4,5-c]quinolin-2-one] | −3.6 | 6 nM | 28 nM | – | – | –
Cc1ccc(-n2c(=O)n(C)c3cnc4ccc(-c5cncc(NC(C)C)c5)cc4c32)c(C)n1 [Example 14.8, 1-(2,6-Dimethyl-pyridin-3-yl)-8-(5-isopropylamino-pyridin-3-yl)-3-methyl-1,3-dihydro-imidazo[4,5-c]quinolin-2-one] | −4.1 | 28 nM | 53 nM | – | – | –
CCOc1ccc(-c2ccc3ncc4c(c3c2)n(-c2ccc(C)nc2C)c(=O)n4C)cn1 [Example 14.2, 1-(2,6-Dimethyl-pyridin-3-yl)-8-(6-ethoxy-pyridin-3-yl)-3-methyl-1,3-dihydro-imidazo[4,5-c]quinolin-2-one] | −3.8 | 26 nM | 358 nM | – | – | –
